Results taken from article PMC12518634, “The noncanonical function of liver-type phosphofructokinase potentiates the efficacy of HDAC inhibitors in cancer” (Signal Transduction and Targeted Therapy, 2025).
Structures can show the parent of a compound that is named as a salt. Where two headings read alike, the source gives them in different places.

How the values were obtained:
[1] = tested on: 1405R3; test: High-throughput drug screen, CellTiter-Glo viability, 72 h; assay type: cell-based, human; design: AUC: scale not given here; conditions: 1405R3 DSRT analysis; for AUC: area under the dose-response curve; for MIN: lower asymptote of fitted dose-response curve; for SLOPE: slope of fitted dose-response curve; for EC50: CellTiter-Glo viability, 72 h, fitted dose-response curve, Min.Conc.tested 1, Max.Conc.tested 10000, GI50, read-out: EC50
Summary of the method: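 Responses are drug sensitivity scores (efficacy cutoff ≥10), fitted from CellTiter-Glo luminescence. Each drug was given at five concentrations (10 to 0.001 μM, tenfold steps) in duplicate for 72 h. Cells were plated at 3000/well 24 h before dosing.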

[2] = tested on: 783C-6; test: as above; assay type: cell-based, human; design: AUC: scale not given here; conditions: for AUC: area under the dose-response curve; for EC50: 72 h, read-out: EC50
Summary of the method: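 Cholangiocarcinoma cells were seeded at 3000/well in 384-well plates and dosed after 24 h. Drugs were tested at 10, 1, 0.1, 0.01 and 0.001 μM in duplicate for 72 h, with viability read by CellTiter-Glo luminescence.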

[3] = 783C-6 DSRT analysis, DSS calculated from the dose-response curve
[4] = 783C-6 DSRT analysis, MIN of the fitted dose-response curve
[5] = 783C-6 DSRT analysis, slope of the fitted dose-response curve
[6] = 783C-6 cells, DSS of DSRT analysis
[7] = 783C-6 cells, minimum of dose-response curve
[8] = 783C-6 cells, slope of fitted dose-response curve
[9] = 783C-6 cells, DSRT analysis, CellTiter-Glo viability, concentrations tested 1 to 10000 (unit inferred), GI50

| SMILES | DSS ([1]; DSS) | AUC [1] | MIN [1] | DSS [2, 3] | MIN [2, 4] | AUC ([2]; 783C-6 DSRT analysis) | EC50 ([2]; Homo sapiens) | SLOPE [1] | SLOPE [2, 5] | DSS ([1]; drug sensitivity score) | DSS [2, 6] | AUC ([2]; 783C-6 cells) | MIN [2, 7] | SLOPE [2, 8] | EC50 ([1]; Homo sapiens) | EC50 [1] | EC50 [2, 9] |
| --- | --- | --- | --- | --- | --- | --- | --- | --- | --- | --- | --- | --- | --- | --- | --- | --- | --- |
| COc1cc2nccc(Oc3ccc(NC(=O)NC4CC4)c(Cl)c3)c2cc1C(N)=O [Lenvatinib] | 0 | 0.1 | 99.3 | 0 | 93.6 | 8.6 |  |  |  |  |  |  |  |  |  |  |  |
| Cc1ccc(F)c(NC(=O)Nc2ccc(-c3cccc4[nH]nc(N)c34)cc2)c1 [Linifanib] | 0 | 3.9 | 97.4 | 3.9 | 68.4 | 53 | 255 nM |  |  |  |  |  |  |  |  |  |  |
| Cn1c(/C=C/C(=O)NO)ccc1/C=C/C(=O)c1cccc(F)c1 [MC1568] | 0 | 2.6 | 94.6 | 0 | 98.4 | 0.2 |  | -0.6 | -2.5 |  |  |  |  |  |  |  |  |
| CCCCCCCc1ccc(CCc2cccc(O)c2C(=O)O)cc1 [MG149] | 0 | 18.5 | 85.7 | 0 | 87.6 | 3.7 |  | -0.2 | -1 |  |  |  |  |  |  |  |  |
| O=C(O)[C@]1(Cc2cccc(Nc3nccs3)n2)CC[C@@H](Oc2cccc(Cl)c2F)CC1 [MK-5108] | 0 | 0.5 | 98.2 | 4.3 | 74.1 | 61.3 | 22.8 nM |  |  |  |  |  |  |  |  |  |  |
| O=C(O)c1ccc(Nc2ncc3c(n2)-c2ccc(Cl)cc2C(c2c(F)cccc2F)=NC3)cc1 [MLN8054] | 0 | 6.8 | 90.2 | 0 | 70.8 | 8.8 |  |  |  |  |  |  |  |  |  |  |  |
| CCC(CC)(NC(=O)C(C)C)C(=O)N[C@@H](CCCN=C(N)N)C(=O)NC1(C(=O)NC(c2ccc(F)cc2)c2ccc(F)cc2)CCCC1 [MM-102] | 0 | 18.6 | 88.1 | 0 | 88.1 | 18.6 |  | -0.1 | -0.1 |  |  |  |  |  |  |  |  |
| CC(C)Oc1ccc(-c2c[nH]cc2CN(C)CCN)cc1 [MS023] |  | 7.3 | 75.6 |  |  |  |  |  |  | 0 | 3.9 | 57.8 | 80.8 |  |  |  |  |
| CNCCN1CCC(OCc2ccccc2)CC1 [MS049] |  | 20.8 | 86.6 |  |  |  |  | -0.1 |  | 0 | 0 | 4.9 | 83.6 | -1 |  |  |  |
| Nc1ccccc1NC(=O)c1ccc(CNc2nccc(-c3cccnc3)n2)cc1 [Mocetinostat] |  | 100.5 | 1.1 |  |  |  | 917 nM |  |  | 11.8 | 11.6 | 98.8 | 4.8 |  | 965 nM |  |  |
| Cc1cc(-c2ccc3nc(C4CCOCC4)n(CCOC(F)(F)F)c3c2)cn(C)c1=O [NEO2734] |  | 130.5 | 8.1 |  |  |  |  | -0.9 |  | 14.3 | 6.1 | 72.8 | 64.2 | -0.3 |  | 407 nM | 87.4 nM |
| CCCCN(Cc1ccc(C(=O)NO)cc1)C(=O)Nc1ccccc1 [Nexturastat A] |  | 0.7 | 93.8 |  |  |  |  |  |  | 0 | 0 | 4.3 | 85.6 |  |  |  |  |
| COC(=O)c1ccc2c(c1)NC(=O)/C2=C(\Nc1ccc(N(C)C(=O)CN2CCN(C)CC2)cc1)c1ccccc1 [Nintedanib] |  | 13.7 | 84 |  |  |  | 2290 nM |  |  | 0.8 | 1.6 | 17.9 | 72.2 |  |  |  |  |
| N[C@H]1CC[C@H](N[C@@H]2C[C@H]2c2ccccc2)CC1 [ORY-1001] |  | 0.1 | 100 |  |  |  |  |  |  | 0 | 0 | 14.3 | 92.7 |  |  |  |  |
| O=C(Nc1ccc(O)c(C(=O)O)c1)c1cccc(NC(=O)c2ccco2)c1 [OSS_128167] |  | 8.4 | 94.6 |  |  |  |  | -0.1 |  | 0 | 0 | 7.3 | 92.5 | -0.3 |  |  |  |
| Cc1sc2c(c1C)C(c1ccc(Cl)cc1)=N[C@@H](CC(=O)Nc1ccc(O)cc1)c1nnc(C)n1-2 [OTX015] |  | 90.2 | 24.3 |  |  |  |  |  |  | 10.4 | 0 | 6.1 | 90.3 |  | 649 nM |  |  |
| O=C(O)C(=O)O.[NH-][C@@H]1CCCC[C@H]1[NH-].[Pt+2] [Oxaliplatin] |  | 20.5 | 78.3 |  |  |  |  | -2.2 |  | 1.7 | 3.8 | 41.2 | 65.7 | -1.1 |  |  | 659 nM |
| COc1ccc(Cn2ccc3ccc(C(=O)NO)cc32)cc1 [PCI-34051] |  | 0.1 | 100 |  |  |  |  | -0.1 |  | 0 | 0 | 2 | 95.4 | -0.7 |  |  |  |
| COc1ccccc1S(=O)(=O)Nc1ccc2c(c1)CN(C)C(=O)N2 [PFI-1] |  | 38.8 | 55.4 |  |  |  |  | -2.5 |  | 4.4 | 0 | 7.2 | 94.7 | -2.5 |  | 1350 nM |  |
| O=C([C@@H](Cc1cccc(C(F)(F)F)c1)NS(=O)(=O)c1cc(F)c2c(c1)CCNC2)N1CCCC1 [PFI-2 HCl] |  | 15.4 | 84.5 |  |  |  |  |  |  | 0 | 0 | 2.2 | 95.2 |  |  |  |  |
| O=C(NNc1ccccn1)c1ccccn1 [PFI-90] |  | 8.1 | 93.5 |  |  |  |  | -0.2 |  | 0 | 0 | 10.9 | 92.2 | -2.5 |  |  |  |
| CC(=O)O[C@H]1C(=O)[C@@]2(C)[C@H]([C@H](OC(=O)c3ccccc3)[C@]3(O)C[C@H](OC(=O)[C@H](O)[C@@H](NC(=O)c4ccccc4)c4ccccc4)C(C)=C1C3(C)C)[C@]1(OC(C)=O)CO[C@@H]1C[C@@H]2O [Paclitaxel] |  | 129.3 | 37.8 |  |  |  | 1.9 nM |  |  | 14.6 | 21.1 | 167.6 | 52.1 |  | 82.1 nM |  |  |
| CCN1C(=O)N(c2c(F)c(OC)cc(OC)c2F)Cc2cnc3[nH]c(CN4CCOCC4)cc3c21 [Pemigatinib] |  | 7 | 76.8 |  |  |  |  |  |  | 0 | 4.8 | 62.9 | 78.8 |  |  |  |  |
| Cc1ccc(C(=O)Nc2ccc(CN3CCN(C)CC3)c(C(F)(F)F)c2)cc1C#Cc1cnc2cccnn12 [Ponatinib] |  | 16.5 | 87 |  |  |  | 155 nM |  |  | 0.6 | 7 | 59.9 | 66.9 |  |  |  |  |
| CCCCc1nc2cc(/C=C/C(=O)NO)ccc2n1CCN(CC)CC [Pracinostat] |  | 75.5 | 3.4 |  |  |  | 2190 nM |  |  | 8.7 | 7.3 | 64.3 | 3.1 |  | 1660 nM |  |  |
| Cn1cc(CNCC2CCN(c3ncc(C(=O)NO)cn3)CC2)c2ccccc21 [Quisinostat] |  | 180.7 | 0.1 |  |  |  | 50 nM |  |  | 21.1 | 26.9 | 227.2 | 1.2 |  | 156 nM |  |  |
| O=C(O)C(Cc1c[nH]c2ccccc12)N1C(=O)c2ccccc2C1=O (stereo not drawn) [RG108] |  | 0.1 | 99.8 |  |  |  |  | -1.1 |  | 0 | 0 | 9.4 | 94 | -0.1 |  |  |  |
| Nc1cc(F)ccc1NC(=O)/C=C/c1cnn(C/C=C/c2ccccc2)c1 [RGFP966] |  | 0.2 | 98.3 |  |  |  |  |  |  | 0 | 0 | 7 | 93.9 |  |  |  |  |
| C[C@@H]1O[C@@H](O[C@H]2[C@H](O[C@H]3[C@H](O[C@H]4CC[C@]5(C)[C@H]6CC=C7[C@@H]8CC(C)(C)CC[C@]8(C(=O)O)CC[C@@]7(C)[C@]6(C)CC[C@H]5C4(C)C)OC[C@H](O)[C@@H]3O)O[C@H](CO)[C@@H](O)[C@@H]2O)[C@H](O)[C@H](O)[C@H]1O [Raddeanin A] |  | 56.1 | 1.8 |  |  |  |  | -2.5 |  | 6.3 | 5.9 | 52.9 | 3.4 | -2.5 |  | 2720 nM | 2880 nM |
| CN(C)Cc1ccc(S(=O)(=O)n2ccc(/C=C/C(=O)NO)c2)cc1 [Resminostat] |  | 45 | 20.3 |  |  |  | 3000 nM |  |  | 5 | 4.3 | 39.6 | 25.4 |  | 2770 nM |  |  |
